Laboratory results taken from US9175077B2, “Nucleic acids encoding biologically active polypeptides derived from a novel early stage pregnancy factor designated maternin (MA)” (NOBEL BIOSCIENCES LLC, priority 1999, dated 2015).

Columns and labels:
[1] = Lethally irradiated rats and mice; settings: for survival: treated at time of radiation, 3×/week for 4 weeks
Protocol: In order to determine in vivo relevance of the prohematopoietic effects of MA treated rats and mice under several conditions of bone marrow suppression. First, the effects of native MA and pMA and of the synthetic 15-mer MAS1 were treated for their capacity to reduce or prevent the effects of lethal doses of gamma irradiation. […] MA, pMA, MAS1, and various control polypeptides were given 48 and 24 hrs before, during, or 24 hrs after radiation. The animals treated prior to radiation received either 100 ng vs. 1 ug (rats) or 50 ng vs. 500 ng (mice) as 2 subcutaneous injections.
It is not yet possible to determine the precise molar dose of pMA because of less certainty on its full-length sequence.
To ascertain that the MA effect did promote hematopoiesis in these animals we examined the bone marrow for cellularity and colony formation and determined peripheral blood counts.

HIV-1 = test system: HIV-1
Protocol: Virus (MOI of 0.001) was added to 10^6 cells in RPMI-1640 with 10% FCS. One hour later the various polypeptides were added once. The cells cultured for 3 days with 5 ug PHA and 20 i.m. of II-2/ml at 37°, after which virus was estimated by determining p24 (HIV-1) or p27 (SIV) (Organon-Teknika).
The effect of native and synthetic MA on HIV-1 infection in vitro was evaluated using PHA and II-2 stimulated primary peripheral blood cells (PBMC), CD4+ T-cells enriched fractions from PBMC, and CD14+ macrophage enriched fractions. Infection was with HIV-1 IIIB (PBMC and CD4+ T-cells), HIV-1 Ba-L (macrophages), and two primary HIV-1 isolates not passaged in any cell line (PBMC).

[2] = test system: Lewis lung (LL) carcinoma cells; test: Pro-apoptotic effect on cultured Lewis lung carcinoma cells; type: cell-based, mouse; settings: same dose range as cultured human tumor cells
Protocol: B16 melanoma and Lewis lung (LL) carcinoma cells were first shown to be susceptible to the pro-apoptotic effects of MA (FIG. 6, Panels C and D) at the same dose range used with cultured human tumor cells. The tumor cells grown in standard culture conditions were used to generate metastatic cancers in pathogen-free 6-8 week old C57/BL mice (Charles River). In one set of experiments, the animals were treated with MAS1 or MAS2 at two doses, 0.1 ug or 1.0 ug either in a pre-treatment protocol (two subcutaneous inoculations 24 and 48 hrs before transplanting the tumor cells).

HIV-1 gene expression = test: HIV-1 transgenic mice, pups feeding from treated mothers; type: in vivo; settings: for survival / development of pups (qualitative): mothers treated, pups breast fed

For “VVCNYRDVRFESIRLPGCPRGVNPVVSYAVALSCQ [MA]”, the survival ([1]; higher dose, over 100 days) was 100%, the gastrointestinal distress ([1]; in vivo) was “little or no gastrointestinal distress” and the survival ([1]; lowest doses) was 80%. For the same sequence, the relative survival ([1]; pretreated, higher dose) was “survived longest”, the “inhibition of primary HIV-1 isolates in PBMCs” value (HIV-1) was “inhibited replication” and the IC50 (HIV-1; read-out: concentration at which virus production was inhibited 50%, IIIB and Ba-L, p24 in extracellular fluid) was roughly 30 nM. The “susceptibility to pro-apoptotic effects” value [2] was “susceptible”, the “weight over the ten day period” value (HIV-1 gene expression; 30-150 pmoles) was “quadrupled their weight” and the “animals that eventually died” value (HIV-1 gene expression; low dose (30 pmoles), after 2 mos) was “about 50%”. The “survival / development of pups (qualitative)” value (HIV-1 gene expression) was “survived”, the “survival / development of pups (qualitative)” value (HIV-1 gene expression; listed as native MA) was “normal development” and the “HIV-1 viral expression in tissues” value (HIV-1 gene expression; mouse, in vivo) was “marked inhibition of viral expression”.
